Assay results reported in patent publication US20260108546A1 (ELI LILLY AND COMPANY, priority 2024, published 2026).

Target: T1, hGIP-R (Homo sapiens, UniProt P48546)
T1 construct: expressed in transfected cells; host or cells: HEK-293 clonal cell lines
T1 sequence (P48546 22-466): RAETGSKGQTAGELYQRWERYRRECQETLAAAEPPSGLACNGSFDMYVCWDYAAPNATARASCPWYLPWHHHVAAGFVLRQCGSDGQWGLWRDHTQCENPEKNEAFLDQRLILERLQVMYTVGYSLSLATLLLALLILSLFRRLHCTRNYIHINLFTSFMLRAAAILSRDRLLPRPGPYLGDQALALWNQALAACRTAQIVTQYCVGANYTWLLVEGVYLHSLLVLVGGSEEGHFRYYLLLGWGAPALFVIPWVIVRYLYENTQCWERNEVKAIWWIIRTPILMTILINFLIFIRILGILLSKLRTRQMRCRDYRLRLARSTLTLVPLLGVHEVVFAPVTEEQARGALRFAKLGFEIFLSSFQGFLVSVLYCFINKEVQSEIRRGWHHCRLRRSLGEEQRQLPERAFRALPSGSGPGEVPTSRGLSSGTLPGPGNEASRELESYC
Assay: Functional hGIP-R Assay (cAMP formation, HTRF)
Assay type: cell-based
Conditions: for Emax: cAMP efficacy, percent of maximal response to GIP(1-42)OH, 37° C., 0.1% bovine casein, arithmetic mean ± SEM; for EC50: cAMP potency, HEK-293 cells expressing hGIP-R, incubated at 37° C. in the presence of 0.1% bovine casein, geometric mean, read-out: Human GIP-R EC50, nM (SEM, n)
Outline: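 HEK-293 cells expressing hGIP-R were given a 20-point compound series in DMEM with 0.1% casein, 250 μM IBMX, 1% DMSO, 30 min at 37 °C. cAMP was read by HTRF against a standard curve, expressed as % of human GIP (1-42) OH maximum; EC50 and Emax came from four-parameter fits.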

Row | SMILES | Emax [%] | EC50 [nM]
1 | Cn1cc(-c2cc(C(F)(F)F)nn2CC(C)(C)NC(=O)[C@@H](Cc2cnn(C(F)F)c2)NC(=O)[C@H]2C[C@@H]2c2nc3c(Cl)nn(C)c3cc2C#N)cc(F)c1=O [Example 155, (1S,2S)-2-(3-Chloro-6-cyano-1-methyl-1H-pyrazolo[4,3-b]pyridin-5-yl)-N—((R)-3-(1-(difluoromethyl)-1H-pyrazol-4-yl)-1-((1-(5-(5-fluoro-1-methyl-6-oxo-1,6-dihydropyridin-3-yl)-3-(trifluoromethyl)-1H-pyrazol-1-yl)-2-methylpropan-2-yl)amino)-1-oxopropan-2-yl)cyclopropane-1-carboxamide] | 78.1 ± 4.92 | 118
2 | Cc1cn2cc(-c3ccc(C4CC45CCN([C@H](Cc4cnn(C(F)F)c4)C(=O)NC(C)(C)Cn4nc(C(F)(F)F)cc4-c4cnc(C)nc4)C5=O)c(C)n3)cnc2n1 (single isomer, unassigned; isomer 1) [Example 110] | 50.8 ± 1.54 | 4.34
3 | CN(C)Cc1ccc(-c2cc(C(F)(F)F)nn2CC(C)(C)NC(=O)[C@@H](Cc2cnn(C(F)F)c2)N2CC[C@@]3(C[C@@H]3c3ccc(-c4cnc5nn(C)cc5c4)cc3F)C2=O)cn1 [Example 135, (R)-3-(1-(Difluoromethyl)-1H-pyrazol-4-yl)-N-(1-(5-(6-((dimethylamino)methyl)pyridin-3-yl)-3-(trifluoromethyl)-1H-pyrazol-1-yl)-2-methylpropan-2-yl)-2-((1S,3R)-1-(2-fluoro-4-(2-methyl-2H-pyrazolo[3,4-b]pyridin-5-yl)phenyl)-4-oxo-5-azaspiro[2.4]heptan-5-yl)propanamide] | 48.5 ± 2.32 | 5.61
4 | Cn1cc2cc(-c3ccc([C@H]4C[C@@H]4C(=O)N[C@H](Cc4cnc5ncccn45)C(=O)NC(C)(C)Cn4nc(C(F)(F)F)cc4-c4ccc(=O)n(C)c4)cc3)cnc2n1 [Example 62, (1S,2S)-N-((R)-3-(imidazo[1,2-a]pyrimidin-3-yl)-1-((2-methyl-1-(5-(1-methyl-6-oxo-1,6-dihydropyridin-3-yl)-3-(trifluoromethyl)-1H-pyrazol-1-yl)propan-2-yl)amino)-1-oxopropan-2-yl)-2-(4-(2-methyl-2H-pyrazolo[3,4-b]pyridin-5-yl)phenyl) cyclopropane-1-carboxamide] | 67.8 ± 10.2 | 17.5
5 | CC(C)(Cn1ccc(C(F)(F)F)n1)NC(=O)[C@@H](Cc1cnc2ncccn12)NC(=O)[C@H]1C[C@@H]1c1ccc(-c2cnc3nccn3c2)cc1 [Example 39, (1S,2S)-N-((R)-3-(Imidazo[1,2-a]pyrimidin-3-yl)-1-((2-methyl-1-(3-(trifluoromethyl)-1H-pyrazol-1-yl)propan-2-yl)amino)-1-oxopropan-2-yl)-2-(4-(imidazo[1,2-a]pyrimidin-6-yl)phenyl) cyclopropane-1-carboxamide] | 77.8 ± 2.57 | 63.1
6 | [2H]C([2H])([2H])n1cc(C[C@H](C(=O)NC(C)(C)Cn2nc(C(F)(F)F)cc2-c2ccc(C(C)(C)O)nc2)N2CC[C@@]3(C[C@@H]3c3ccc(-c4cnc5nn(C6CC6)cc5c4)nc3C)C2=O)cn1 [Example 190, (R)-2-((1R,3R)-1-(6-(2-cyclopropyl-2H-pyrazolo[3,4-b]pyridin-5-yl)-2-methylpyridin-3-yl)-4-oxo-5-azaspiro[2.4]heptan-5-yl)-N-(1-(5-(6-(2-hydroxypropan-2-yl)pyridin-3-yl)-3-(trifluoromethyl)-1H-pyrazol-1-yl)-2-methylpropan-2-yl)-3-(1-(methyl-d3)-1H-pyrazol-4-yl)propanamide] | 80.2 ± 6.78 | 1.12
7 | Cn1cc(C[C@@H](NC(=O)[C@H]2C[C@@H]2c2ccc(-c3cnc4nn(C)cc4c3)cc2)C(=O)NC(C)(C)Cn2nc(C(F)(F)F)cc2-c2cn[nH]c2)cn1 [Example 41, (1S,2S)-N—((R)-1-((2-Methyl-1-(5-(trifluoromethyl)-1′H,2H-[3,4′-bipyrazol]-2-yl)propan-2-yl)amino)-3-(1-methyl-1H-pyrazol-4-yl)-1-oxopropan-2-yl)-2-(4-(2-methyl-2H-pyrazolo[3,4-b]pyridin-5-yl)phenyl)cyclopropane-1-carboxamide] | 111 ± 4.76 | 20.2
8 | CC(C)(Cn1cc(C(F)(F)F)cn1)NC(=O)[C@@H](Cc1cnc2ncccn12)NC(=O)[C@H]1C[C@@H]1c1ccc(-c2cnc3nc(C(F)F)cn3c2)cc1 [Example 79, (1S,2S)-2-(4-(2-(Difluoromethyl)imidazo[1,2-a]pyrimidin-6-yl)phenyl)-N-((R)-3-(imidazo[1,2-a]pyrimidin-3-yl)-1-((2-methyl-1-(4-(trifluoromethyl)-1H-pyrazol-1-yl)propan-2-yl)amino)-1-oxopropan-2-yl)cyclopropane-1-carboxamide] | 104 ± 5 | 25.1
9 | Cn1cc(C[C@@H](NC(=O)[C@H]2C[C@@H]2c2ccc(-c3cnc4nn(C)cc4c3)cc2)C(=O)NC(C)(C)Cn2nc(C(F)F)cc2-c2cn[nH]n2)cn1 [Example 44, (1S,2S)-N-((R)-1-((1-(3-(Difluoromethyl)-5-(2H-1,2,3-triazol-4-yl)-1H-pyrazol-1-yl)-2-methylpropan-2-yl)amino)-3-(1-methyl-1H-pyrazol-4-yl)-1-oxopropan-2-yl)-2-(4-(2-methyl-2H-pyrazolo[3,4-b]pyridin-5-yl)phenyl)cyclopropane-1-carboxamide] | 111 ± 17.5 | 122
10 | Cn1cc(C[C@@H](NC(=O)[C@H]2C[C@@H]2c2ccc(-c3cnc4nccn4c3)cc2)C(=O)NC(C)(C)Cn2nc(C(F)(F)F)cc2-c2cnn(C)c2)cn1 [Example 28, (1S,2S)-2-(4-(Imidazo[1,2-a]pyrimidin-6-yl)phenyl)-N-((R)-1-((2-methyl-1-(1′-methyl-5-(trifluoromethyl)-1′H,2H-[3,4′-bipyrazol]-2-yl)propan-2-yl)amino)-3-(1-methyl-1H-pyrazol-4-yl)-1-oxopropan-2-yl)cyclopropane-1-carboxamide] | 91.9 ± 0.597 | 20.5
11 | COc1ncc(-c2ccc([C@H]3C[C@@]34CCN([C@H](Cc3cnn(C(F)F)c3)C(=O)NC(C)(C)Cn3nc(C(F)(F)F)cc3-c3ccn(C5CC5)c(=O)c3)C4=O)c(C)n2)cc1F [Example 174, (R)-N-(1-(5-(1-cyclopropyl-2-oxo-1,2-dihydropyridin-4-yl)-3-(trifluoromethyl)-1H-pyrazol-1-yl)-2-methylpropan-2-yl)-3-(1-(difluoromethyl)-1H-pyrazol-4-yl)-2-((1R,3R)-1-(5′-fluoro-6′-methoxy-6-methyl-[2,3′-bipyridin]-5-yl)-4-oxo-5-azaspiro[2.4]heptan-5-yl)propanamide] | 13.4 ± 1.64 | 6.09
12 | Cc1ncc(-c2cc(C(F)(F)F)nn2CC(C)(C)NC(=O)[C@@H](Cc2cnn(C(F)F)c2)N2CCC3(CC3c3ccc(-c4cnc5nn(C)cc5c4)nc3C(F)(F)F)C2=O)cn1 (single isomer, unassigned; isomer 1) [Example 112] | 62 ± 0.9 | 3.21
13 | Cn1cc(C[C@@H](NC(=O)[C@H]2C[C@@H]2c2ccc(-c3cnc4nn(C)cc4c3)cc2)C(=O)NC(C)(C)Cn2nc(C(F)(F)F)cc2-c2ncsn2)cn1 [Example 17, (1S,2S)-N-((R)-1-((1-(5-(1,2,4-Thiadiazol-3-yl)-3-(trifluoromethyl)-1H-pyrazol-1-yl)-2-methylpropan-2-yl)amino)-3-(1-methyl-1H-pyrazol-4-yl)-1-oxopropan-2-yl)-2-(4-(2-methyl-2H-pyrazolo [3,4-b]pyridin-5-yl)phenyl) cyclopropane-1-carboxamide] | 129 ± 11.4 | 83.5
